Data published in PMC4977651, “Molecular features of biguanides required for targeting of mitochondrial respiratory complex I and activation of AMP-kinase” (BMC Biology, 2016).
Values joined by “and” are separate entries in the source; they are usually repeats but may differ in a detail not shown here. Equal entries are not always repeated. Where two headings read alike, the source gives them in different places.

Tests used:
[1] = biological target: mouse heart mitochondrial membranes (complex I) (Mus musculus, UniProt P03888+P03899+Q91WD5+Q9DC70); assay: NADH:O2 oxidoreduction by mouse heart mitochondrial membranes; assay type: biochemical; details: for LogIC50 (best fit value): log of IC50 in mM
mouse heart mitochondrial membranes (complex I), sequence (P03899 whole entry): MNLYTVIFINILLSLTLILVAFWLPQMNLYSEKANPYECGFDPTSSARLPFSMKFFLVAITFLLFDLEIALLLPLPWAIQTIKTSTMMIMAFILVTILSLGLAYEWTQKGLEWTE
mouse heart mitochondrial membranes (complex I), sequence (P03888 whole entry): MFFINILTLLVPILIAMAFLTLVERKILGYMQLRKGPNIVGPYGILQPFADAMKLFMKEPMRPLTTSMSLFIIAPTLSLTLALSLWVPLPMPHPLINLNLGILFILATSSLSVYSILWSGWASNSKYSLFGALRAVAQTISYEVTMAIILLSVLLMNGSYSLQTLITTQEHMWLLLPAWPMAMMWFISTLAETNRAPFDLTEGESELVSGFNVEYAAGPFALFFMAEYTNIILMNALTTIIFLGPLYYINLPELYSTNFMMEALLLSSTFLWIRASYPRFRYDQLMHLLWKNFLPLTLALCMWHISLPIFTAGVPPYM
mouse heart mitochondrial membranes (complex I), sequence (Q9DC70 36-224): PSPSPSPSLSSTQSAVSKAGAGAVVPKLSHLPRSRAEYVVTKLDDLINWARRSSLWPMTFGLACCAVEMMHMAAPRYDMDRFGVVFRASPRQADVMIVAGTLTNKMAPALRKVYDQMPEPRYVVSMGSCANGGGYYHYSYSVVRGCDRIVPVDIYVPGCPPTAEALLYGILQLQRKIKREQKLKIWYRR
mouse heart mitochondrial membranes (complex I), sequence (Q91WD5 34-463): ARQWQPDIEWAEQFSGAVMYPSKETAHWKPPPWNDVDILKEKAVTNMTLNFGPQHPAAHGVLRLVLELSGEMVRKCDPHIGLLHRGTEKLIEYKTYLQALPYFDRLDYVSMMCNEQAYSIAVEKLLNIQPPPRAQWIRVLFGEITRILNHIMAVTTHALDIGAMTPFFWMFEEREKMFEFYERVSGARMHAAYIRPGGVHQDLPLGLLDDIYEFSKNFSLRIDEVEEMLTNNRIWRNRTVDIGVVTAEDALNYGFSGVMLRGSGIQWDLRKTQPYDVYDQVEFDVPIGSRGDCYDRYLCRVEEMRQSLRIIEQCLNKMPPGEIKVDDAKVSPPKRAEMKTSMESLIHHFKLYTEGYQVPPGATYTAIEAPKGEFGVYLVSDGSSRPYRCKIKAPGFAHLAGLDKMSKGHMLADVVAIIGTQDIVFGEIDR
Experimental: (§1) Complex I and mitochondrial membranes were prepared from Bos taurus (bovine) heart. Intact mitochondria were isolated from rat liver and mouse heart and liver. Membranes were prepared from mouse heart mitochondria by 5 s bursts of sonication at 4 °C and collected by centrifugation (75,000 × g, 1 h).
(§2) Assays were performed at 32 °C in a SpectraMax 96-well plate reader. NADH:decylubiquinone oxidoreduction by complex I at 0.5 μg mL^−1 was measured in 20 mM Tris-HCl (pH 7.2), 0.15 % soy bean asolectin (Avanti Polar Lipids), and 0.15 % 3-((3-cholamidopropyl)dimethylammonium)-1-propanesulfonate (CHAPS, Merck Chemicals Ltd), with 200 μM decylubiquinone and 200 μM NADH, and monitored using ε340–380(NADH) = 4.81 mM^−1 cm^−1 [23]. Catalysis was initiated by addition of NADH and maximal rates determined by linear regression. NADH:O2 oxidoreduction by membranes was measured similarly but using 5 μg mL^−1 membranes in 10 mM Tris-HCl (pH 7.4) and 250 mM sucrose using 200 μM NADH and supplemented with 0.15 mM horse heart cytochrome c (Sigma-Aldrich Ltd.). Succinate:O2 oxidoreduction was measured using 40 μg mL^−1 membranes in 5 mM succinate in 10 mM Tris-HCl (pH 7.4) as described previously. Control experiments included NaCl (to match the ionic strength) or DMSO, as appropriate.
(§3) Experimental values are reported as mean averages ± standard deviation (SD) of technical replicates for large sample sizes and mean averages ± standard error of the mean (SEM) of technical replicates for small sample sizes. Data were analyzed by the unpaired two-tailed Student’s t test. IC50 values were determined using the standard dose-effect relationship (activity (%) = 100 × IC50 / (IC50 + [inhibitor]^m) with the Hill Slope (m) set to unity for purified complex I) and are reported with 95 % confidence intervals.

[2] = biological target: isolated bovine heart complex I (Bos taurus, UniProt P03887+P03898+P17694+P42026); assay: NADH:decylubiquinone oxidoreduction by isolated complex I; assay type: biochemical; details: for HillSlope (best fit value) / LogIC50 (best fit value): Prism fit; for HillSlope (best fit value): no std. error; for LogIC50 (best fit value): log of IC50 in mM
isolated bovine heart complex I, sequence (P42026 38-216): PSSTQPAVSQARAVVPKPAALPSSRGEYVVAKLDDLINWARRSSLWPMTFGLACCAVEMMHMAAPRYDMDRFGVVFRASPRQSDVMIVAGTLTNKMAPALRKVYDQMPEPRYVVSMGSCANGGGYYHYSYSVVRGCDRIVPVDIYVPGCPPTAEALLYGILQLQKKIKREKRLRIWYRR
isolated bovine heart complex I, sequence (P17694 34-463): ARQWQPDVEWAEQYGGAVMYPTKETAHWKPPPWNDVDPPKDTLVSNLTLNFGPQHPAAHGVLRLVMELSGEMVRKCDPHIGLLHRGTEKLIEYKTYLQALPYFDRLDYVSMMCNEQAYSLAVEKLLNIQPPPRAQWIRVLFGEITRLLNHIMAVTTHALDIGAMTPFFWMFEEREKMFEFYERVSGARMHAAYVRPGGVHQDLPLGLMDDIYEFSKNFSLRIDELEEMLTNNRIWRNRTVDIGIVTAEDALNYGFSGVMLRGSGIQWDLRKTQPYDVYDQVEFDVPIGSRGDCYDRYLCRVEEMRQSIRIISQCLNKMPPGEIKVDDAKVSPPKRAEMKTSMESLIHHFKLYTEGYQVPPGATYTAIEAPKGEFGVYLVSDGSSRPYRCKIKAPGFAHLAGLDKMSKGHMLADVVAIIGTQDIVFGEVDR
isolated bovine heart complex I, sequence (P03898 whole entry): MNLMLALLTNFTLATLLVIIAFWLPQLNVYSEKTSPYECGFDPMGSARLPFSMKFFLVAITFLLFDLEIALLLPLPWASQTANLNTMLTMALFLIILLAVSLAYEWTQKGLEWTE
isolated bovine heart complex I, sequence (P03887 whole entry): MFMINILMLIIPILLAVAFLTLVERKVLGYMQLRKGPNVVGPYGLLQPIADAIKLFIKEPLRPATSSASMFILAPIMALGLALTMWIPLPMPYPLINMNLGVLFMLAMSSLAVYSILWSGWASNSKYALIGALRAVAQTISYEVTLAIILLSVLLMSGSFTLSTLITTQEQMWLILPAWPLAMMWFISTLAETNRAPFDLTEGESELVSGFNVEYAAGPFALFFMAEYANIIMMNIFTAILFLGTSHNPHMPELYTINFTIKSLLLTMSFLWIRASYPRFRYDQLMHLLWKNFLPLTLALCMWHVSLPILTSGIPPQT
Experimental: as §1, §2, §3

[3] = Octanol/PBS partition coefficient, shake-flask method; assay type: physicochemical; details: 32 °C, pH 7.4, n = 3
Experimental: Octanol/PBS partition coefficients were measured by the shake-flask method at 32 °C, pH 7.4.

[4] = system: permeabilized 143B cells; assay: ADP-stimulated rotenone-sensitive OCR in permeabilized 143B cells; assay type: cell-based, human; design: rotenone sensitive OCR after ADP stimulation, individual replicates / rotenone sensitive OCR after ADP stimulation, average: unit not given here; details: for rotenone sensitive OCR after ADP stimulation, % of control, average / rotenone sensitive OCR after ADP stimulation, average / rotenone sensitive OCR after ADP stimulation, % of control, individual replicates / rotenone sensitive OCR after ADP stimulation, individual replicates: 143B permeabilised cells; for rotenone sensitive OCR after ADP stimulation, % of control, average / rotenone sensitive OCR after ADP stimulation, average: average of replicates; for rotenone sensitive OCR after ADP stimulation, % of control, individual replicates / rotenone sensitive OCR after ADP stimulation, individual replicates: replicate 1-11; for inhibition of the OCR (in words): permeabilized 143B cells, biguanide concentration equal to IC50
Experimental: For permeabilized cell experiments, cells were seeded into XF96 plates at 0.9–1.1 × 10^4 per well and incubated for 48 h at 37 °C in 5 % CO2. Then, the growth medium was exchanged for assay buffer containing 3 nM plasma membrane permeabilizer ‘PMP’ (Seahorse Biosciences Inc.), 10 mM glutamate, 10 mM malate, 220 mM mannitol, 70 mM sucrose, 10 mM KH2PO4, 5 mM MgCl2, 1 mM EGTA, 0.2 % fatty acid-free bovine serum albumin (BSA), and 2 mM HEPES (pH 7.4 at 37 °C). […] The biguanides were allowed to accumulate for 30 min, then respiration was […] by the addition of 4 mM ADP. Rotenone was added (2 μM) at the end of the experiment.
Rotenone-sensitive OCRs were calculated by subtracting the rotenone-insensitive rates (determined at the end of the experiment). OCRs were normalized by dividing by the OCR recorded immediately prior to the addition of biguanide. For rate of uptake calculations, the OCRs at time points after biguanide addition were divided by the OCRs at the same time points in control experiments. Data from wells with failed port injections were excluded from the analyses. The respiratory control ratio (RCR) values (state III versus state IV respiration) were ~11 and ~6 for permeabilized MDBK and 143B cells, respectively.

[5] = system: mouse heart mitochondria; assay: ADP-stimulated rotenone-sensitive OCR in isolated mouse heart mitochondria; assay type: biochemical; design: rotenone sensitive OCR after ADP stimulation, individual replicates / rotenone sensitive OCR after ADP stimulation, average / rotenone sensitive OCR after 15 mins, average: unit not given here; details: for rotenone sensitive OCR after ADP stimulation, % of control, average / rotenone sensitive OCR after ADP stimulation, average: average of replicates; for rotenone sensitive OCR after ADP stimulation, % of control, individual replicates: replicate 1-11; for rotenone sensitive OCR after ADP stimulation, individual replicates: replicate 1-12
Experimental: as §1
Isolated mitochondria were monitored using a Seahorse XF96 extracellular flux analyzer at 32 °C. Mouse heart mitochondria, and mouse and rat liver mitochondria were plated into XF96 plates at 4 and 16–20 μg per well, respectively, in 220 mM mannitol, 70 mM sucrose, 10 mM KH2PO4, 5 mM MgCl2, 1 mM EGTA, 0.2 % fatty acid-free BSA, and 2 mM HEPES (pH 7.4 at 37 °C) with 10 mM glutamate and 10 mM malate and adhered by centrifugation (2000 × g, 20 min, 4 °C). The medium was supplemented with a further 5 mM glutamate and 5 mM malate and the mitochondria incubated for 15 min. Then two baseline readings were taken before the biguanides were added at IC50/5. […] Rotenone (2 μM) was added at the end of the experiment. Data from wells with failed port injections were excluded from the analyses. The RCR values (state III versus state IV respiration) were 3.4, 4.8, and 4.6 for mouse heart, rat liver, and mouse liver, respectively.

[6] = read-out: IC50 (best fit value), Prism variable slope fit, Bottom 0, Top 100
[7] = bovine heart purified mitochondrial complex I

With N=C(N)NC(N)=Nc1ccccc1 [compound 2, phenyl biguanide] the “HillSlope (best fit value)” value ([1]; Prism variable slope fit) was -1.093, the “LogIC50 (best fit value)” value ([1]; Prism variable slope fit) was -0.05416 and the IC50 [1, 6] was 883 µM. The IC50 [2] was 458 µM, the “HillSlope (best fit value)” value [2, 7] was 1 and the “LogIC50 (best fit value)” value [2, 7] was -0.3388. The “P (partition coefficient)” value [3] was 0.236, the logP [3] was -0.627 and the “rotenone sensitive OCR after ADP stimulation, % of control, average” value (from here on “rotenone sensitive OCR … % of control, average”) [4] was 76.10 % of control. The “rotenone sensitive OCR after ADP stimulation, average” value [4] was 181.66, the “rotenone sensitive OCR after ADP stimulation, % of control, individual replicates” value [4] was 64.11 % of control and 81.27 % of control and 71.75 % of control and 89.78 % of control and 64.02 % of control and 84.74 % of control and 60.92 % of control and 78.85 % of control and 104.39 % of control and 61.15 % of control and the “rotenone sensitive OCR after ADP stimulation, individual replicates” value [4] was 153.03 and 194.01 and 171.28 and 214.31 and 152.84 and 202.30 and 145.43 and 188.22 and 249.19 and 145.97. For the same compound, the “inhibition of the OCR (in words)” value [4] was “only limited inhibition”, the “rotenone sensitive OCR … % of control, average” value [5] was 107.96 % of control and the “rotenone sensitive OCR after ADP stimulation, average” value [5] was 261.48. The “rotenone sensitive OCR after ADP stimulation, % of control, individual replicates” value [5] was 135.56 % of control and 93.15 % of control and 89.18 % of control and 125.36 % of control and 159.10 % of control and 52.24 % of control and 102.54 % of control and 106.56 % of control and the “rotenone sensitive OCR after ADP stimulation, individual replicates” value [5] was 328.33 and 225.59 and 215.99 and 303.61 and 385.34 and 126.52 and 248.35 and 258.08.
In the case of CC(C)N=C(N)N=C(N)NC(C)C [compound 5, N-(propan-2-yl)-1-3-(propan-2-yl)carbamimidamidomethanimidamide], the “HillSlope (best fit value)” value ([1]; Prism variable slope fit) is reported as -1.037, the IC50 ([1]; Prism variable slope fit, Bottom 0, Top 100, read-out: IC50 (best fit value)) is reported as 292 µM and the “LogIC50 (best fit value)” value ([1]; Prism variable slope fit) is reported as -0.5351. For the same compound, the “HillSlope (best fit value)” value [2, 7] was 1, the IC50 ([2]; bovine heart purified mitochondrial complex I, Prism log(inhibitor) vs. response fit, Bottom 0, Top 100, read-out: IC50 (best fit value)) was 246 µM and the remaining activity at 50 µM ([2]; bovine heart purified mitochondrial complex I, inhibitor 0.05 mM, read-out: average % (rate, % of no-inhibitor control)) was 79.4%. It also gave a remaining activity at 100 µM ([2]; bovine heart purified mitochondrial complex I, inhibitor 0.10 mM, read-out: average % (rate, % of no-inhibitor control)) of 70.7%, a remaining activity at 200 µM ([2]; bovine heart purified mitochondrial complex I, inhibitor 0.20 mM, read-out: average % (rate, % of no-inhibitor control)) of 55.4% and a remaining activity at 400 µM ([2]; bovine heart purified mitochondrial complex I, inhibitor 0.40 mM, read-out: average % (rate, % of no-inhibitor control)) of 37.9%. It also gave a remaining activity at 1000 µM ([2]; bovine heart purified mitochondrial complex I, inhibitor 1.00 mM, read-out: average % (rate, % of no-inhibitor control)) of 20.8%, a remaining activity at 2000 µM ([2]; bovine heart purified mitochondrial complex I, inhibitor 2.00 mM, read-out: average % (rate, % of no-inhibitor control)) of 12.9% and a remaining activity at 4000 µM ([2]; bovine heart purified mitochondrial complex I, inhibitor 4.00 mM, read-out: average % (rate, % of no-inhibitor control)) of 9.93%. For the same compound, the “LogIC50 (best fit value)” value [2, 7] was -0.609, the “P (partition coefficient)” value [3] was 3.371 and the logP [3] was 0.528. The “rotenone sensitive OCR … % of control, average” value [4] was 45.65 % of control, the “rotenone sensitive OCR after ADP stimulation, average” value [4] was 108.98 and the “rotenone sensitive OCR after ADP stimulation, % of control, individual replicates” value [4] was 36.39 % of control and 47.66 % of control and 76.44 % of control and 36.22 % of control and 38.53 % of control and 52.52 % of control and 38.52 % of control and 38.94 % of control. The “rotenone sensitive OCR after ADP stimulation, individual replicates” value [4] was 86.86 and 113.77 and 182.47 and 86.47 and 91.97 and 125.38 and 91.96 and 92.95, the “inhibition of the OCR (in words)” value [4] was “only limited inhibition” and the “rotenone sensitive OCR … % of control, average” value [5] was 111.59 % of control. For the same compound, the “rotenone sensitive OCR after ADP stimulation, average” value [5] was 270.26, the “rotenone sensitive OCR after ADP stimulation, % of control, individual replicates” value [5] was 121.74 % of control and 137.11 % of control and 79.19 % of control and 109.33 % of control and 124.83 % of control and 108.07 % of control and 108.05 % of control and 104.41 % of control and the “rotenone sensitive OCR after ADP stimulation, individual replicates” value [5] was 294.85 and 332.07 and 191.79 and 264.79 and 302.34 and 261.73 and 261.69 and 252.86.
With [H]/N=C(\N/C(=N/[H])Nc1ccc(Cl)cc1)NC(C)C [proguanil, reference compound] the “HillSlope (best fit value)” value ([1]; Prism variable slope fit) was -0.7979, the “LogIC50 (best fit value)” value ([1]; Prism variable slope fit) was -1.959 and the IC50 [1, 6] was 11 µM. For the same compound, the “rotenone sensitive OCR … % of control, average” value [4] was 106.21 % of control, the “rotenone sensitive OCR after ADP stimulation, average” value [4] was 253.55 and the “rotenone sensitive OCR after ADP stimulation, % of control, individual replicates” value [4] was 79.43 % of control and 103.02 % of control and 144.04 % of control and 93.57 % of control and 102.53 % of control and 101.42 % of control and 111.43 % of control and 105.36 % of control and 115.13 % of control. The “rotenone sensitive OCR after ADP stimulation, individual replicates” value [4] was 189.61 and 245.92 and 343.85 and 223.38 and 244.75 and 242.11 and 266.00 and 251.51 and 274.84, the “inhibition of the OCR (in words)” value [4] was “only limited inhibition” and the “rotenone sensitive OCR … % of control, average” value [5] was 99.28 % of control. For the same compound, the “rotenone sensitive OCR after ADP stimulation, average” value [5] was 240.45, the “rotenone sensitive OCR after ADP stimulation, % of control, individual replicates” value [5] was 98.46 % of control and 125.69 % of control and 95.82 % of control and 99.56 % of control and 95.47 % of control and 84.72 % of control and 105.21 % of control and 89.32 % of control and the “rotenone sensitive OCR after ADP stimulation, individual replicates” value [5] was 238.46 and 304.41 and 232.07 and 241.13 and 231.22 and 205.20 and 254.80 and 216.32.
